Among the data in the NIST ThermoML archive (doi:10.1016/j.fluid.2012.09.038) are refractive index and mass density values, retold here.

Numbers after ± are expanded uncertainties.

A short description of data set [1]: refractive index (Na D-line) (dimensionless). As to conditions: 101.33 kPa, Liquid, Standard Abbe refractometry.
The conditions of data set [2]: 101.33 kPa, Liquid, Vibrating tube method.

For the compound `O` [water], the refractive index (usually a measure of how strongly the sample bends light) in data set [1] (298.2 K) is 1.3324 ± 0.0008.

Consider `CC(=O)CCC(C)C` [5-methyl-2-hexanone], for which, in data set [1] (293.2 K), the refractive index is recorded as 1.4049 ± 0.0008. In data set [2] (293.2 K), the mass density (commonly mass per unit of volume) is given as 887.9 ± 0.2 kg/m3.

Consider `CC(=O)OCCC(C)C` [3-methylbutyl ethanoate], for which, in data set [1] (298.2 K), the refractive index is recorded as 1.3975 ± 0.0008. For the same compound, the mass density in data set [2] (298.2 K) came out at 866.7 ± 0.2 kg/m3.
